Data published in patent US7960369B2, “Receptor function regulator” (Takeda Pharmaceutical Company Limited, priority 2002, dated 2011).

Assays:
[1] = target: T1, human-derived GPR40 (Homo sapiens, UniProt O14842); test: Reactivity of fatty acid to human-derived GPR40, intracellular calcium by FLIPR in transfected CHO-K1 cells; type: cell-based; conditions: for response (increase in intracellular calcium concentration) of CHO-K1 cell expressing the GPR40 receptor: added at 10^−5M-10^−6M, FLIPR, control-vector cells showed no response; for activity in intracellular calcium ion mobilization assay using CHO cell expressing GPR40 (GPR40 agonistic activity): as stated in Experimental Example 6
T1 construct: expressed in transfected cells; host or cells: CHO-K1, transient transfection with lipofectamine
T1 sequence (O14842 whole entry): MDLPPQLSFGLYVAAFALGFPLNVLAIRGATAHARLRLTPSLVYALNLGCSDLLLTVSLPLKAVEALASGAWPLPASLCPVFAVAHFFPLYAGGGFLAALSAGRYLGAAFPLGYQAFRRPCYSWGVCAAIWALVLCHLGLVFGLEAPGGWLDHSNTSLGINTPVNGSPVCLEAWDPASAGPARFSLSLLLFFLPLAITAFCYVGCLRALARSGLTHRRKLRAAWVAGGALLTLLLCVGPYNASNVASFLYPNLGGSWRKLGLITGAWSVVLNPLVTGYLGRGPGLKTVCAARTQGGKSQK
Procedure: Unless specifically indicated, CHO-K1 cell line was cultured using Ham's F-12 medium (Invitrogen) containing 10% fetal calf serum (Invitrogen). The day before transfection, 4.5×10^5 per 10 cm^2 of cells were seeded, and incubated at 37° C. for not less than 15 hrs in a CO2 incubator adjusted to 5% CO2 concentration. The transfection was performed using a lipofectamine reagent (Invitrogen) and according to the reagent attached method. When a 6-well plate was used for a culture plate, transfection was performed in the following manner. First two 1.5 ml volume tubes were prepared, and 100 μl of Opti-MEM-I medium (Invitrogen) was dispensed. Then, […] of an expression vector was added to one tube and 6 μl of a lipofectamine reagent was added to the other tube. They were mixed and stood still at room temperature for 20 min. A mixed solution for transfection containing this solution and Opti-MEM-I medium (800 μl) was added to CHO-K1 cell previously washed with Opti-MEM-I medium, and incubated in a CO2 incubator for 6 hrs. The incubated cells were rinsed with PBS (Invitrogen), detached with 0.05% trypsin-EDTA solution (Invitrogen), recovered by centrifugation. The obtained cells were counted, diluted such that 5×10^4 cells were contained per 200 μl of the medium, dispensed to black walled 96-well plate (Costar) at 200 μl per well, incubated overnight in a CO2 incubator. Various test samples were added to CHO-K1 cells transiently expressing the receptor by the above-mentioned transfection step, and changes in the intracellular calcium concentration then was measured using FLIPR (Molecular Device). For measurement of changes in intracellular calcium concentration by FLIPR, the following pretreatment was applied. First, an assay buffer for adding fluorescence dye Fluo-3AM (DOJIN) to the cell, or washing the cell immediately before FLIPR assay was prepared. To a solution (hereinafter HBSS/HEPES solution) obtained by adding 20 ml of 1M HEPES (pH 7.4) (DOJIN) to 1000 ml of HBSS (Invitrogen) was added a solution (10 ml) obtained by dissolving probenecid (710 mg, Sigma) in 1N NaOH (5 ml) and adding and mixing with HBSS/HEPES solution (5 ml) and the obtained solution was used as an assay buffer. Then, Fluo-3AM (50 μg) was dissolved in 21 μl of DMSO (DOJIN), and an equal amount of 20% pluronic acid (Molecular Probes) was added. The mixture was added to an assay buffer (10.6 ml) supplemented with 105 μl of fetal calf serum to give a fluorescence dye solution. The medium of the CHO-KL cell after transfection treatment was removed, a fluorescence dye solution was immediately dispensed at 100 μl per well and incubated in a CO2 incubator for 1 hr to incorporate the fluorescence dye into the cell. The incubated cells were washed with the above-mentioned assay buffer and set on FLIPR. The test sample to be added to receptor expressing CHO-KL cell was prepared using the assay buffer and simultaneously set on FLIPR. After the above-mentioned pretreatment, changes in the intracellular calcium concentration after addition of various test samples were measured by FLIPR.

[2] = target: T2, human GPR40 (Homo sapiens, UniProt O14842); test: Effect of regulation of GPR40 receptor function (agonistic effect), intracellular calcium by FLIPR; type: cell-based; conditions: CHO cell line (No. 104) expressing human GPR40, fluorescence intensity at 30 sec after start of reaction
T2 construct: expressed in transfected cells; host or cells: CHO cell line CHO-hGPR40 No. 104 (pAKKO-111 vector)
T2 sequence (O14842 whole entry): as above
Procedure: CHO cell line (No. 104) made to express human GPR40 was diluted such that 3×10^4 cells/100 μL were contained, dispensed to a black walled 96-well plate (Costar) at 100 μL per well, and incubated overnight in a CO2 incubator. The changes in the intracellular calcium concentration were measured using FLIPR (Molecular Device). The method is described in the following.
Fluo-3AM (DOJIN) (50 μg) was dissolved in 21 μl DMSO (DOJIN), and an equal amount of 20% pluronic acid (Molecular Probes) was added and mixed, and the mixture was added to 10.6 ml of an assay buffer [prepared by adding 20 ml of 1M HEPES (pH 7.4) (DOJIN) to 1 L of HBSS (Invitrogen), and adding a mixed solution (10 ml) obtained by dissolving probenecid (Sigma) (710 mg) in 1N NaOH (5 ml) and adding and mixing with the above-mentioned HBSS/HEPES solution (5 ml)] supplemented with 105 μl of fetal calf serum to give a fluorescence dye solution. The medium in the cell plate was removed, a fluorescence dye solution was immediately dispensed at 100 μl per well, and incubated in a CO2 incubator for 1 hr to incorporate fluorescence dye into the cell. The incubated cells were washed with the above-mentioned assay buffer. The compound to be added to the cell was diluted with the assay buffer to each concentration and dispensed to a test sample plate. After the above-mentioned pretreatment, changes in the intracellular calcium concentration after addition of the compound was measured by FLIPR, and the agonistic effect was examined. EC50 value was calculated from a dose response curve based on the changes in the fluorescence intensity value at 30 sec after the start of the reaction.

[3] = tested on: mouse pancreatic β cell line MIN6; test: Promotion of insulin secretion from MIN6 (insulin immunoassay); type: cell-based; conditions: MIN6, KRBH with 22 mM glucose, 90 min
Procedure: (§1) Mouse pancreatic β cell line MIN6 cultured in a flask was detached with PBS containing 2.5 mM EDTA, and seeded and incubated in a 96 well plate for 2 days. The medium used was obtained by adding 15% fetal bovine serum (ThermoTrace), […] 2-mercaptoethanol (Invitrogen), 20 mM HEPES pH 7.3, 100 U/ml penicillin and 100 μg/ml streptomycin to Dulbecco's Modified Eagle Medium (DMEM, Invitrogen) containing 4.5 g/l of glucose. The cells were washed twice with modified Krebs-Ringer bicarbonate buffer (KRBH, 116 mM NaCl, 4.7 mM KCl, 1.2 mM KH2PO4, 1.2 mM MgSO4, 2.5 mM CaCl2, 25 mM NaHCO3, 24 mM HEPES pH 7.3) and preincubated at 37° C. under 5% CO2 conditions for 30 min. Fatty acid diluted and prepared with a buffer obtained by adding 22 mM glucose to the above-mentioned KRBH was added to the cell after preincubation and the cells were incubated at 37° C. under 5% CO2 conditions for 90 min. After incubation, the cell supernatant was recovered and cryopreserved. The insulin content of the supernatant was measured using a commercially available insulin immunoassay kit (Amersham Pharmacia Biotech).
as §1, with “(KBH,” for “(KRBH,”, “The compound” for “Fatty acid”

[4] = tested on: siRNA-introduced MIN6 cell; test: Insulin secretion enhancing activity of fatty acid in siRNA-introduced MIN6; type: cell-based, mouse
Procedure: The expression amount of mouse GPR40-GFP was detected by the following enzyme immunoassay. The culture supernatant was discarded, washed with HBSS (Invitrogen), fixed with 0.01% glutaraldehyde (Wako Pure Chemical Industries, Ltd.) for 5 min., and blocked with PBS (TAKARA SHUZO) containing 2% BSA. 500-fold diluted anti-GFP monoclonal antibody 3E6 (NIPPON GENE CO., LTD.) was added and the cells were incubated at room temperature for 2 hrs., washed and 500-fold diluted HRP-labeled anti-mouse IgG antibody (ICN) was added, and the cells were incubated at room temperature for 2 hrs. After washing, TMB microwell peroxydase substrate (Funakoshi) was added and, after incubation for 30 min., sulfuric acid was added to stop the color developing reaction, and the absorbance at 450 nm was measured.
as §1
Insulin secretion enhancing activity in MIN6 cell, into which m40i103 was introduced using HVJ Envelope VECTOR KIT GenomONE based on the method of Experimental Example 5, was examined. The insulin secretion enhancing activity by fatty acid was examined by the method of Experimental Example 6.

Row | Compound | response (increase in intracellular calcium concentration) of CHO-K1 cell expressing the GPR40 receptor [1] | EC50 [2] | other results
1 | CCCCCCCCC#CCC#CCC#CCCCC(=O)O [5.8.11-eicosatriynoic acid] | specifically responds | – | –
2 | CCCCCC#CCC#CCC#CCC#CCCCC(=O)O [5.8.11.14-eicosatetraynoic acid] | specifically responds | – | –
3 | CCCC(=O)O [butyric acid] | – | – | insulin secretion enhancing activity [3]: did not show a significant insulin secretion enhancing activity; activity in intracellular calcium ion mobilization assay using CHO cell expressing GPR40 (GPR40 agonistic activity) [1]: no GPR40 agonistic activity
4 | CC(C)=CCCC(C)=CCCC(C)=CC(=O)O [farnesoic acid] | specifically responds | – | –
5 | CCCCC/C=C\C/C=C\CCCCCCCC(=O)O [linoleic acid] | specifically responds | – | insulin secretion enhancing activity [3]: significant insulin secretion enhancing activity; insulin secretion enhancing activity of fatty acid ([4]; MIN6 into which GPR40 specific siRNA m40i103 was introduced): no longer showed insulin secretion enhancing activity; insulin secretion enhancing activity of fatty acid ([4]; MIN6 into which random sequence Scramble II duplex siRNA was introduced): retention of the insulin secretion enhancing activity; activity in intracellular calcium ion mobilization assay using CHO cell expressing GPR40 (GPR40 agonistic activity) [1]: remarkable activity
6 | CCCCC/C=C\C/C=C\CCCCCCCC(=O)OC [methyl linolate] | – | – | insulin secretion enhancing activity [3]: did not show a significant insulin secretion enhancing activity; activity in intracellular calcium ion mobilization assay using CHO cell expressing GPR40 (GPR40 agonistic activity) [1]: no GPR40 agonistic activity
7 | CC/C=C\C/C=C\C/C=C\CCCCCCCC(=O)O [α-linolenic acid] | – | – | insulin secretion enhancing activity [3]: significant insulin secretion enhancing activity; activity in intracellular calcium ion mobilization assay using CHO cell expressing GPR40 (GPR40 agonistic activity) [1]: remarkable activity
8 | docosatrienoic acid | specifically responds | – | –
9 | eicosadienoic acid | specifically responds | – | –
10 | eicosatrienoic acid | specifically responds | – | –

The next lines start with results.

Row | response (increase in intracellular calcium concentration) of CHO-K1 cell expressing the GPR40 receptor [1] | EC50 [2] | Compound | other results
11 | – | 170 nM | O=C(O)CCc1ccc(OC2CCCc3ccccc32)cc1 (stereo not shown) [Example 2, 4-[(1,2,3,4-tetrahydronaphthalen-1-yl)oxy]benzenepropanoic acid] | –
12 | – | 160 nM | O=C(O)CCc1ccc(OCc2ccc(OCc3ccccc3)cc2)cc1 [Example 6, 4-[[4-(phenylmethoxy)phenyl]methoxy]benzenepropanoic-acid] | –
13 | – | 130 nM | O=C(O)CCc1ccc(OCc2ccc(-c3ccccc3)cc2)cc1 [Example 7, 4-([1,1′-biphenyl]-4-ylmethoxy)benzenepropanoic acid] | –
14 | – | 320 nM | O=C(O)CCc1ccc(OCc2ccccc2)cc1 [Reference Example 2, 4-(phenylmethoxy)benzenepropanoic acid] | –
15 | – | 460 nM | O=C(O)CCc1ccc(OCCCc2ccccc2)cc1 [Reference Example 6, 4-(3-phenylpropoxy)benzenepropanoic acid] | –
16 | – | 1200 nM | CN(Cc1ccc(C(=O)Nc2ccc(CCC(=O)O)cc2)cc1)c1nc(-c2ccccc2)cs1 [Reference Example 15, 4-[[4-[[methyl(4-phenyl-2-thiazolyl)amino]methyl]benzoyl]amino]benzenepropanoic acid] | –
17 | specifically responds | – | CCCCC/C=C\C/C=C\C/C=C\C/C=C\CCCCCC(=O)O [adrenic acid] | –
18 | specifically responds | – | CCCCC/C=C\C/C=C\C/C=C\C/C=C\CCCC(=O)O [arachidonic acid] | insulin secretion enhancing activity [3]: significant insulin secretion enhancing activity; activity in intracellular calcium ion mobilization assay using CHO cell expressing GPR40 (GPR40 agonistic activity) [1]: remarkable activity
19 | specifically responds | – | CCCCCCCCCCCC(=O)O [lauric acid] | –
